Measured values as given in patent US9364448B2, “Nitisinone for treatment of oculocutaneous/ocular albinism and for increasing pigmentation” (The United States of America, as represented by the …, priority 2010, dated 2016).

Experiments:
[1] = tested on: C57BL/6J-Tyr^c-h/c-h mice (OCA1b model); assay: Coat and ocular pigmentation, clinical examination and electron microscopy, Tyr^c-h/c-h mice; format: in vivo, mouse
Procedure: Animal Husbandry and Clinical Examination. C57BL/6J mice (Stock #000664), C57BL/6JTyr^c-2J/c-2J mice (Stock #000058, MGI ID#1855985), and C57BL/6Tyr^c-h/c-h (Stock #000104, MGI ID#1855979) were obtained from the Jackson Laboratory (Bar Harbor, Me.). Mice were housed according to the institutional Animal Review Board standards with a 14 hour light/10 hour dark cycle. These studies conformed to the principles for laboratory animal research outlined by the Animal Welfare Act (NIH/HHS) and the ARVO Statement for the Use of Animals in Ophthalmic and Vision Research and were approved by the Institutional Animal Care and Use Committee of the National Eye Institute. Clinical examination and imaging of the anterior segment of mice were performed on gently-restrained, awake mice using a Haag-Streit BQ slit lamp and Imaging Module IM900® software (Haag-Streit, Inc., Mason, Ohio). Clinical examination of the posterior segment was performed on gently restrained, awake mice after dilation with one drop of 1% tropicamide (Alcon Laboratories, Inc., Fort Worth, Tex.) using an indirect ophthalmoscope (Keeler, Windsor, Berkshire, UK) with a 90D condensing lens (Volk, Mentor, Ohio). Fundus images were obtained on mice sedated with intraperitoneally injected […] diluted in normal saline. Images were obtained using a Nikon D.90 digital SLR camera with a Nikon 85 mm f/2.8D micro AF-S ED lens mounted to a custom-made aluminum stand, using a 5 cm long Hopkins rigid otoscope coupled to a Xenon Nova light source (175 watt) and fiberoptic cable (Karl Storz, Tuttlingen, Germany). Mice were euthanized with carbon dioxide according to institutional guidelines.
Drug Dosing and Monitoring.
Using the same protocol as described above, baseline plasma tyrosine, coat color (gross and microscopic), anterior segment pigment, and posterior segment pigment was documented for each mouse prior to initiating experiments. […] These treated mice were compared to an age- and gender-matched cohort of C57BL/6J-Tyr^c-h/c-h mice over the same time period. Corneal irritation due to NTBC treatment was monitored daily. At the start of treatment, an area of hair was plucked/shaved from each mouse's back, which has the effect of stimulating new hair growth and possibly new pigment deposition in the hair shaft. At the end of four weeks' time, plasma tyrosine concentrations were assessed in both treated and control animals.
Assessment of the effect treatment and the end of the experimental time period commences with photodocumentation of coat color, anterior segment pigment and posterior segment pigment of each mouse. The mice were sacrificed using standard CO2 euthanasia protocol. One eye from each mouse was submitted for light microscopy, while the other is prepared for electron microscopy. Liver and kidney tissues were collected and processed for light microscopy histology, to insure no pathology is associated with treatment. Additional blood samples were taken and frozen at the time of euthanasia, for possible future studies. Hair shafts in plucked and non-plucked areas were examined and photographed under light microscopy. Melanosome number and size was quantified in the retinal pigmented epithelial cells (RPE) and choroid of the posterior pole of both treated and untreated mice, in a masked fashion, as previously described above.

[2] = tested on: male Alpk:ApfCD-1 albino mice; conditions: cited from earlier work
[3] = target: T1, H420R mutant tyrosinase in Melan-c cells (Mus musculus, UniProt P11344, H420R); assay: Tyrosinase enzyme activity in transfected Melan-c cells, H420R; format: cell-based; conditions: 1 mM tyrosine; Melan-c cells expressing H420R; p=0.03
T1 construct: expressed in transfected cells; host or cells: Melan-c cells (albino mouse melanocytes), Fugene HD transfection
T1 sequence (P11344 19-533 H420R): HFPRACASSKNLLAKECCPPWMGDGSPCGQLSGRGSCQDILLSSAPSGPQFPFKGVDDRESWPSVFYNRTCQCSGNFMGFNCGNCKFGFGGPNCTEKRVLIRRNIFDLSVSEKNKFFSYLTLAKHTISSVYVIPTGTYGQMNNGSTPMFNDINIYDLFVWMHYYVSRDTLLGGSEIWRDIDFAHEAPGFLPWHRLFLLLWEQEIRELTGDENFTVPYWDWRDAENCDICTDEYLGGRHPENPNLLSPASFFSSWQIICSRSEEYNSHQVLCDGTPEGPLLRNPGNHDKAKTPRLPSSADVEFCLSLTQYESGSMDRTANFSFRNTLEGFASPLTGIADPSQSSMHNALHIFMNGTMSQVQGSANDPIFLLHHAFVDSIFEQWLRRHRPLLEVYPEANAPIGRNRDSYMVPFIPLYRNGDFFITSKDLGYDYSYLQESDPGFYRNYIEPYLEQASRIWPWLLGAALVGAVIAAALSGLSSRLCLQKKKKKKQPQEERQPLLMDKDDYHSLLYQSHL
Procedure: Melan-c cell cultures. Melan-c cells (melanocytes derived from mice homozygous for the albino mutation (D. C. Bennett et al., Development, 105:379 (1989)) were cultured in RPMI 1640, pH 6.9 supplemented with 5% fetal bovine serum (FBS), streptomycin-penicillin (100 μg/ml each), 200 nM tetradeconyl phorbol acetate (TPA), and 100 μM β-mercaptoethanol, at 37° C. in 10% CO2. Cells were transfected using Fugene HD reagent according to the manufacturer's instructions (Roche Diagnostics Inc., Indianapolis, Ind.) in presence or absence of 1 mM tyrosine. After 24 hours, cells were washed twice with saline phosphate buffer, harvested in 10 mM sodium phosphate, pH 6.8, containing 1% Igepal CA-630 and protease inhibitor (Roche), and microcentrifuged for 30 minutes at 13,200×g, at a temperature of about 4° C. to obtain a protein lysate.
Diphenol oxidase activity of tyrosinase was determined spectrophotometrically according to Slominski et al., J. Invest. Dermatol., 96:172 (1991), with minor modifications. Briefly, the reaction mixtures contained 7 mM L-dopa in 0.1 M sodium phosphate buffer (pH 6.8) and protein lysate (20 mg/ml) was incubated at 37° C. and monitored by measuring the absorbance at 475 nm. All experiments were conducted in triplicate. […]

[4] = Tyr^c-h/c-h (Himalayan) mice, 4 mg/kg orally every other day, one month

| Compound | Fundus pigmentation [1, 4] | Iris pigmentation [1, 4] | Coat pigmentation, treated vs control ([1]; Tyr^c-h/c-h mice, 4 mg/kg orally every other day, one month, shaved patch) | Phenotypic changes ([1]; Tyr^c-h/c-h mice, dose as in Example 1 (1 mg/kg every other day), one month) | RPE and choroidal melanosome pigment content (electron microscopy) ([1]; Tyr^c-h/c-h mice, treated vs control, preliminary data, FIG. 3) | Tolerated NTBC dose ([2]; male Alpk:ApfCD-1 albino mice, age 3-6 weeks) | NTBC dose at which maximum plasma tyrosine concentrations were achieved ([2]; mice, toxicologic studies (Lock et al.)) | Tyrosinase enzyme activity over baseline [3] |
| --- | --- | --- | --- | --- | --- | --- | --- | --- |
| O=C1CCCC(=O)C1C(=O)c1ccc(C(F)(F)F)cc1[N+](=O)[O-] [NTBC, 2-(-2-nitro-4 trifluoromethylbenzoyl)-1,3 cyclohexanedione] | grossly unchanged | some increase in iris pigmentation | observable increase in pigmentation | no phenotypic changes | significant increase | up to 160 mg/kg/day | ≤ 10 mg/kg |  |
| N[C@@H](Cc1ccc(O)cc1)C(=O)O [tyrosine] |  |  |  |  |  |  |  | increased enzyme activity over baseline |
